In paper PMC3777193, “Diaryl- and triaryl-pyrrole derivatives: inhibitors of the MDM2–p53 and MDMX–p53 protein–protein interactions” (Medchemcomm, 2013):
Read-outs that look alike come from different tables or passages of the source.

Legend:
[1] = test system: A2780 cells; type: cell-based; conditions: A2780 (p53wt), 0.1, 0.2 and 5 μM, 4 h
[2] = test system: MRK-NU-1; assay: Growth inhibitory activity, MRK-NU-1; conditions: Homo sapiens, MRK-nu-1, read-out: GI50 MRK-NU-1
Procedure: (§1) Growth inhibitory activity was determined for selected pyrroles in a panel of cell lines with defined MDM2, MDMX and p53 status (Table 5).

[3] = target: MDM2–p53 (Homo sapiens, UniProt Q00987); assay: MDM2–p53 ELISA protein–protein binding assay
[4] = test system: A2780CP70 cells; type: cell-based; conditions: A2780 CP70 (p53 mutant), 0.1, 0.2 and 5 μM, 4 h
[5] = test system: SN40R2; assay: Growth inhibitory activity, SN40R2; conditions: read-out: GI50 SN40R2
Procedure: as §1

[6] = test system: SJSA-1 cells; type: cell-based; conditions: SJSA-1 (MDM2 amplified, p53wt), 5 μM, 4 h
[7] = target: T1, MDMX–p53 (Homo sapiens, UniProt O15151); assay: MDMX–p53 ELISA binding assay; conditions: read-out: MDMX IC50
T1 construct: host or cells: in vitro coupled T7 transcription and rabbit reticulocyte lysate translation
T1 sequence (O15151 1-490): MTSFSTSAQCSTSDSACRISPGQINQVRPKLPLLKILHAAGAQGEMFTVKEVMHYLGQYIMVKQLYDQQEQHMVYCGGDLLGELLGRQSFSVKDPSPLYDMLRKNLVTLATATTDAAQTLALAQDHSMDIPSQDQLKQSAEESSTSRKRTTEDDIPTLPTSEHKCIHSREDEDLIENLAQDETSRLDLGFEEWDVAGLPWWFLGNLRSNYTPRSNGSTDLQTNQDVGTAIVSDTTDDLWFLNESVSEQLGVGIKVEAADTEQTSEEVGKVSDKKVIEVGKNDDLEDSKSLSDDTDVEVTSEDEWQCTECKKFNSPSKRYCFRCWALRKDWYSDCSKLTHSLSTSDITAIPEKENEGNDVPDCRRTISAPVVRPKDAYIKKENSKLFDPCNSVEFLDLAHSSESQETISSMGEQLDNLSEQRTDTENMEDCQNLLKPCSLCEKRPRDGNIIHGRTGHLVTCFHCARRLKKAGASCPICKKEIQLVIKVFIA

[8] = test system: SJSA-1; assay: Growth inhibitory activity, SJSA-1; conditions: Homo sapiens, SJSA-1, read-out: GI50 SJSA-1
Procedure: as §1

[9] = test system: MDM2; conditions: read-out: MDM2–p53 IC50; cited from earlier work

Chain of MDM2–p53 (Q00987 whole entry): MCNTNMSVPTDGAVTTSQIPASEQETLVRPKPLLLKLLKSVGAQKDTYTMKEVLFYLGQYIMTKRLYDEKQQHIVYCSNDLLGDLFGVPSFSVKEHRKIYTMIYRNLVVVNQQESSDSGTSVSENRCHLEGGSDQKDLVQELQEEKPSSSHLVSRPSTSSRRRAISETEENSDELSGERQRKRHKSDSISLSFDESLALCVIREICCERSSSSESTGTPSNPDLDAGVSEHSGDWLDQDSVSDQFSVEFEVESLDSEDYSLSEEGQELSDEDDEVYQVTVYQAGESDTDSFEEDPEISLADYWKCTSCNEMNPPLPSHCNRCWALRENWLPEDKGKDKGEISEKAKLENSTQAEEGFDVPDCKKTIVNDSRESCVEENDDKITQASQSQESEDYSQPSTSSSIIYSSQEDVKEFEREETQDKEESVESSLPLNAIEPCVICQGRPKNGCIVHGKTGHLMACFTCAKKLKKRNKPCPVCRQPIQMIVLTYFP

Row | SMILES | induction of MDM2 and p21 (Western blot) [1] | GI50 [2] | IC50 [3] | fold more potent than the comparable 2,5-dimethyl analogues (4a, 4b) [3] | IC50 ([3]; read-out: MDM2 IC50) | induction of MDM2, p53, and p21 (Western blot) [4] | GI50 [5] | induction of MDM2, p53, and p21 (Western blot) [6] | IC50 [7] | GI50 [8] | IC50 [9]
1 | O=C1NC(=S)NC(=O)C1=Cc1cc(-c2ccccc2)n(-c2ccc(Cl)cc2)c1-c1ccccc1 [Compound 4c, 5-((1-(4-chlorophenyl)-2,5-diphenyl-1H-pyrrol-3-yl)methylene)-2-thioxodihydropyrimidine-4,6(1H,5H)-dione] | observed | 2.3 ± 0.3 µM | 0.12 ± 0.02 µM | 5–10 fold | 0.11 ± 0.03 µM | no induction | 2.8 ± 0.6 µM | clearly visible | 4.2 ± 1.2 µM | 2.3 ± 0.2 µM | –
2 | CCOc1cc(C(C)(C)C)ccc1C1=N[C@@](C)(c2ccc(Cl)cc2)[C@@](C)(c2ccc(Cl)cc2)N1C(=O)N1CCN(CCCS(C)(=O)=O)CC1 [RG-7112] | – | – | – | – | – | – | – | – | – | – | 0.012 µM
